Measured values reported in US20090197893A1 (Bristol-Myers Squibb Company, priority 2005, published 2009).
Like-named read-outs stand apart in the source and are kept apart here.

Legend:
[1] = tested on: patients with advanced CML or Ph+ ALL with imatinib resistance/intolerance; assay: Dasatinib dose escalation clinical trial: hematologic response; details: for Hematologic response: CHR / Hematologic response: Major HR / Hematologic response: NEL / Hematologic response: Minor HR: patients n (%); for patients who responded: p=0.049
[2] = Plasma pharmacokinetics in patients; assay type: in vivo, human; details: T315I patients; FIG. 2b
[3] = tested on: patients with advanced CML or Ph+ ALL with imatinib resistance/intolerance; assay: Dasatinib dose escalation clinical trial: cytogenetic response; details: for Cytogenetic response: CCyR / Cytogenetic response: Major CyR / Cytogenetic response: Minimal CyR / Cytogenetic response: Overall CyR / Cytogenetic response: PCyR / Cytogenetic response: Minor CyR: patients n (%)
p-glycoprotein = p-glycoprotein (Homo sapiens, UniProt P08183); details: cited from earlier work
CML patients = details: cited from earlier work; for patients who developed resistance to imatinib: 4 years of follow-up
wild-type BCR-ABL = details: cited from earlier work
[4] = tested on: imatinib-resistant BCR-ABL mutants; details: cited from earlier work
[5] = AP (N = 11), regardless of relationship to treatment, patients n (%)
[6] = AP-CML (N = 11), patients n (%)
[7] = LBC/ALL (N = 10), patients n (%)
[8] = LBC/ALL (N = 10), regardless of relationship to treatment, patients n (%)
[9] = LBC/Ph+ ALL (N = 10), patients n (%)
[10] = MBC N = (23), regardless of relationship to treatment, patients n (%)

Sequence of p-glycoprotein (P08183 whole entry): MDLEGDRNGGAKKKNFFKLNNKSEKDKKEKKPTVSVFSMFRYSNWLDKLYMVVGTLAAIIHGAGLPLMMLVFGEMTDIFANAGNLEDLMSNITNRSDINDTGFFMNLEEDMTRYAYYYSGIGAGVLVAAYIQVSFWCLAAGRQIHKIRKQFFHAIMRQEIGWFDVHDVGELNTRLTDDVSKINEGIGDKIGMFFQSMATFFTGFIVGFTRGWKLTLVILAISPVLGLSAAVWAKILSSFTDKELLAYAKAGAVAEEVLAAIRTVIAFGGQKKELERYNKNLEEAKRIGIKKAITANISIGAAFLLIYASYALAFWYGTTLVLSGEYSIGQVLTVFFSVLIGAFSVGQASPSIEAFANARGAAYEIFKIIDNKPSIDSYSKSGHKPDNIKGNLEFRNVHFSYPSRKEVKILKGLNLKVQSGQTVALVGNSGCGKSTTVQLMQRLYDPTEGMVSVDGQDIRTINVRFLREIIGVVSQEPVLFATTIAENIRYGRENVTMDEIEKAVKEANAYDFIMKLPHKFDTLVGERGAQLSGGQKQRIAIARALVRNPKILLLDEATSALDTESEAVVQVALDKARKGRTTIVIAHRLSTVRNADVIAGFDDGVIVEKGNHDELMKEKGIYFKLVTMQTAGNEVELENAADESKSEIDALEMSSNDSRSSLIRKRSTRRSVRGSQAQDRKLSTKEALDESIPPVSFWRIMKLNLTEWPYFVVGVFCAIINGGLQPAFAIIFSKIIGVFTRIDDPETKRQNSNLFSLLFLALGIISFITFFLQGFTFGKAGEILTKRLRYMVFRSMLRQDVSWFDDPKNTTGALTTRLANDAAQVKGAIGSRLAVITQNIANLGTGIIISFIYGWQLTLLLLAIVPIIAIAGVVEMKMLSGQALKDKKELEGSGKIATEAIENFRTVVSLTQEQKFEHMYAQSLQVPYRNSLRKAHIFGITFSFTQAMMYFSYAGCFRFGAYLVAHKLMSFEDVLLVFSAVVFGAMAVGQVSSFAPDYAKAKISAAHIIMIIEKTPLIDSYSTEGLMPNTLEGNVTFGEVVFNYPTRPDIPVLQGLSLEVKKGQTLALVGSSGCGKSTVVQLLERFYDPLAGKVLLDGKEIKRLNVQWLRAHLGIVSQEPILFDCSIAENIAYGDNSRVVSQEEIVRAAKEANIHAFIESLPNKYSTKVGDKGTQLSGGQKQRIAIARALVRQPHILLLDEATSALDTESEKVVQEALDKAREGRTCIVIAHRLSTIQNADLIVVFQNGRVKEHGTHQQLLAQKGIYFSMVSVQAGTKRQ

## Cc1nc(Nc2ncc(C(=O)Nc3c(C)cccc3Cl)s2)cc(N2CCN(CCO)CC2)n1 [dasatinib, N-(2-chloro-6-methylphenyl)-2-[[6-[4-(2-hydroxyethyl)-1-piperazinyl]-2-methyl-4-pyrimidinyl]amino]-5-thiazolecarboxamide]
[1]; AP CML n = 11
  Hematologic response: CHR: 5 (45)
  Hematologic response: Major HR: 9 (81)
  Hematologic response: NEL: 4 (36)
[1]; AP cohort, 9/11, median of 8 months (range 2-13 months)
  patients who achieved a major HR remain on study: 81%
[1]; AP patients, 6
  major HR confirmed after 4 weeks: 55%
[1]; AP patients, 9/11
  major HR: 81%
[1]; LBC-CML/ALL n = 10
  Hematologic response: CHR: 7 (70)
  Hematologic response: Major HR: 8 (80)
  Hematologic response: NEL: 1 (10)
[1]; LBC/Ph+ ALL, 5
  major HR confirmed after 4 weeks: 50%
[1]; LBC/Ph+ ALL, 8/10
  major HR rate: 80%
[1]; MBC patients, 7
  major HR confirmed after 4 weeks: 30%
[1]; MBC patients, 14/23
  major HR: 61%
[1]; MBC, 6 of 23, follow-up ranging 5-12 months
  patients who remain on the study: 26%
[1]; MBC-CML n = 23
  Hematologic response: CHR: 8 (35)
  Hematologic response: Major HR: 14 (61)
  Hematologic response: Minor HR: 4 (17)
  Hematologic response: NEL: 6 (26)
[1]; Nine of the 44 patients
  patients who failed to meet the criteria for major or minor hematologic response: 20%
[1]; Total N = 44
  Hematologic response: CHR: 20 (45)
  Hematologic response: Major HR: 31 (70)
  Hematologic response: Minor HR: 4 (9)
  Hematologic response: NEL: 11 (25)
[1]; complex karyotypes, 17 of 25 patients
  patients who responded: 68%
[1]; lymphoid blast crisis or Ph+ ALL
  relapsed within 6 months: all but one patient
[1]; of the 8 Myeloid BC patients who achieved CHR
  patients with durable responses for 10 months or longer: 3
[1]; simple Ph karyotypes, 17 of 18 patients
  patients who responded: 94%
[1]; total patient population, 20/44
  CHR: 45%
[1]; total patient population, 31/44
  major HR: 70%
[2]
  serum levels: adequate
35-120 mg BID cohorts
  maximum tolerated dose: not defined
AP (N = 11), patients n (%)
  Diarrhea, Grade 1-4: 5 (45)
  Dyspnea/Pulmonary edema, Grade 1-4: 3 (27)
  Flushing, Grade 1-4: 3 (27)
  Generalized edema, Grade 1-4: 1 (9)
  Headache, Grade 1-4: 3 (27)
  Nausea, Grade 1-4: 1 (9)
  On-Study Myelosuppression: ANC, Grade 3: 3 (27)
  On-Study Myelosuppression: Platelets, Grade 3: 3 (27)
  Periorbital edema, Grade 1-4: 1 (9)
  Peripheral edema, Grade 1-4: 3 (27)
  Rash, Grade 1-4: 5 (45)
  Vomiting, Grade 1-4: 1 (9)
[5]
  Elevated ALT, Grade 1-4: 8 (73)
  Elevated ALT, Grade 3-4: 1 (9)
  Elevated AST, Grade 1-4: 7 (64)
  Elevated Total bilirubin, Grade 1-4: 2 (18)
  Elevated creatinine, Grade 1-4: 2 (18)
  Hypocalcemia, Grade 1-4: 8 (73)
  Hypocalcemia, Grade 3-4: 2 (18)
  Hypomagnesemia, Grade 1-4: 5 (45)
AP, 9/11 patients
  Grade 3 or 4 neutropenia on treatment: 82%
  grade 3/4 thrombocytopenia: 82%
[6]
  On-Study Myelosuppression: ANC, Grade 4: 6 (55)
  On-Study Myelosuppression: Platelets, Grade 4: 6 (55)
[7]
  Diarrhea, Grade 1-4: 2 (20)
  Dyspnea/Pulmonary edema, Grade 1-4: 1 (10)
  Generalized edema, Grade 1-4: 1 (10)
  Nausea, Grade 1-4: 1 (10)
  Periorbital edema, Grade 1-4: 1 (10)
  Peripheral edema, Grade 1-4: 1 (10)
  Pleural effusion, Grade 1-4: 2 (20)
  Rash, Grade 1-4: 1 (10)
  Vomiting, Grade 1-4: 1 (10)
[8]
  Elevated ALT, Grade 1-4: 7 (70)
  Elevated AST, Grade 1-4: 9 (90)
  Elevated Total bilirubin, Grade 1-4: 5 (50)
  Elevated creatinine, Grade 1-4: 6 (60)
  Hypocalcemia, Grade 1-4: 7 (70)
  Hypocalcemia, Grade 3-4: 3 (30)
  Hypomagnesemia, Grade 1-4: 3 (30)
[9]
  On-Study Myelosuppression: ANC, Grade 3: 2 (20)
  On-Study Myelosuppression: ANC, Grade 4: 6 (60)
  On-Study Myelosuppression: Platelets, Grade 3: 0
  On-Study Myelosuppression: Platelets, Grade 4: 7 (70)
LBC/Ph+ ALL, 7/10 patients
  grade 3/4 thrombocytopenia: 70%
LBC/Ph+ ALL, 8/10 patients
  Grade 3 or 4 neutropenia on treatment: 80%
MBC (N = 23), patients n (%)
  Diarrhea, Grade 1-4: 5 (22)
  Diarrhea, Grade 3-4: 1 (4)
  Dyspnea/Pulmonary edema, Grade 1-4: 2 (9)
  Dyspnea/Pulmonary edema, Grade 3-4: 2 (9)
  Flushing, Grade 1-4: 1 (4)
  Headache, Grade 1-4: 1 (4)
  Nausea, Grade 1-4: 4 (17)
  On-Study Myelosuppression: ANC, Grade 3: 2 (9)
  On-Study Myelosuppression: ANC, Grade 4: 20 (87)
  On-Study Myelosuppression: Platelets, Grade 3: 2 (9)
  On-Study Myelosuppression: Platelets, Grade 4: 17 (74)
  Pericardial effusion, Grade 1-4: 3 (13)
  Pericardial effusion, Grade 3-4: 2 (9)
  Periorbital edema, Grade 1-4: 2 (9)
  Peripheral edema, Grade 1-4: 5 (22)
  Pleural effusion, Grade 1-4: 8 (35)
  Pleural effusion, Grade 3-4: 3 (13)
  Rash, Grade 1-4: 2 (9)
  Rectal hemorrhage, Grade 1-4: 2 (9)
  Rectal hemorrhage, Grade 3-4: 2 (9)
  Tumor lysis syndrome, Grade 1-4: 2 (9)
  Tumor lysis syndrome, Grade 3-4: 2 (9)
  Vomiting, Grade 1-4: 2 (9)
[10]
  Elevated ALT, Grade 1-4: 13 (57)
  Elevated AST, Grade 1-4: 13 (57)
  Elevated Total bilirubin, Grade 1-4: 10 (43)
  Elevated Total bilirubin, Grade 3-4: 4 (17)
  Elevated creatinine, Grade 1-4: 12 (52)
  Hypocalcemia, Grade 1-4: 21 (91)
  Hypocalcemia, Grade 3-4: 6 (26)
  Hypomagnesemia, Grade 3-4: 1 (4)
MBC, 19/23 patients
  grade 3/4 thrombocytopenia: 83%
MBC, 22/23 patients
  Grade 3 or 4 neutropenia on treatment: 96%
Advanced phase CML patients
  severe (grade 4) myelosuppression: about 70%
All patients
  patients removed from the study due to a drug-related toxicity: no patient
All patients, 9/44
  Grade 3/4 non-hematologic adverse events: 20%
Often in the absence of other edema
  non-malignant pleural effusions: 10 patients
[3]; AP CML n = 11
  Cytogenetic response: CCyR: 2 (18)
  Cytogenetic response: Major CyR: 3 (27)
  Cytogenetic response: Minimal CyR: 1 (9)
  Cytogenetic response: Overall CyR: 4 (36)
  Cytogenetic response: PCyR: 1 (9)
[3]; AP patients, 3/11
  Major cytogenetic responses: 27%
[3]; LBC-CML/ALL n = 10
  Cytogenetic response: CCyR: 3 (30)
  Cytogenetic response: Major CyR: 8 (80)
  Cytogenetic response: Minor CyR: 1 (10)
  Cytogenetic response: Overall CyR: 9 (90)
  Cytogenetic response: PCyR: 5 (50)
[3]; LBC/Ph+ ALL patients, 8/10
  MCyR rate: 80%
[3]; LBC/Ph+ ALL patients, 9/10
  overall cytogenetic response rate: 90%
[3]; MBC patients, 12/23
  Cytogenetic responses: 52%
[3]; MBC-CML n = 23
  Cytogenetic response: CCyR: 6 (26)
  Cytogenetic response: Major CyR: 8 (35)
  Cytogenetic response: Minimal CyR: 2 (9)
  Cytogenetic response: Minor CyR: 2 (9)
  Cytogenetic response: Overall CyR: 12 (52)
  Cytogenetic response: PCyR: 2 (9)
[3]; Total N = 44
  Cytogenetic response: CCyR: 11 (25)
  Cytogenetic response: Major CyR: 19 (43)
  Cytogenetic response: Minimal CyR: 3 (7)
  Cytogenetic response: Minor CyR: 3 (7)
  Cytogenetic response: Overall CyR: 25 (57)
  Cytogenetic response: PCyR: 8 (18)
[3]; total patient population, 11/44
  CCyR: 25%
[3]; total patient population, 19/44
  major CyR (CCyR plus PCyR): 43%
[3]; total patient population, 25/44
  CyR: 57%
p-glycoprotein
  substrate for p-glycoprotein: not a substrate

## Cc1ccc(NC(=O)c2ccc(CN3CCN(C)CC3)cc2)cc1Nc1nccc(-c2cccnc2)n1 [imatinib]
CML patients; AP CML patients
  patients who developed resistance to imatinib: 75%
CML patients; BC patients
  patients who developed resistance to imatinib: 95%
CML patients; blastic phase
  estimated 2-year incidence of resistance: 80%
CML patients; chronic phase post-interferon-α failure
  estimated 2-year incidence of resistance: 10%

## Cc1cn(-c2cc(NC(=O)c3ccc(C)c(Nc4nccc(-c5cccnc5)n4)c3)cc(C(F)(F)F)c2)cn1 [AMN107]
wild-type BCR-ABL
  IC50: […]
[4]
  imatinib-resistant BCR-ABL mutants against which significantly active: 32/33
